Test results as given in US20250230193A1, “CYCLIC COMPOUND HAVING SELECTIVE KRAS INHIBITORY EFFECT ON HRAS AND NRAS” (CHUGAI SEIYAKU KABUSHIKI KAISHA, priority 2022, published 2025).
*1 amine or outer side, *2 acyl side, *3 side chain or, on linkers, in order; H or OH if unused. Where a SMILES comes first, the peptide text is derived from it. Bridges are numbered along the chain shown (N, C = ends). [ ]: non-standard residue; d: D form. The star is where a group is joined. hPhe(3-Cl-4-CF3) = N[C@@H](CCc1ccc(C(F)(F)F)c(Cl)c1)C(=O)O; X35 = Cc1ccc(C[C@@H](C(=O)[*:2])N(CCC(C)(C)C)[*:1])cc1; NPrPhe(4-CF3) = CCCN[C@@H](Cc1ccc(C(F)(F)F)cc1)C(=O)O; X27 = Cc1ccc(C[C@@H](C(=O)[*:2])N(CC2CCCCC2)[*:1])cc1; X29 = Cc1ccc(C[C@@H](C(=O)[*:2])N(CC2CCCC2)[*:1])cc1; NMePhe(4-CF3) = CN[C@@H](Cc1ccc(C(F)(F)F)cc1)C(=O)O; X34 = Cc1ccc(C[C@@H](C(=O)[*:2])N(CCC(C)C)[*:1])cc1; X48 = C=CCCN([C@@H](Cc1ccc(C)cc1)C(=O)[*:2])[*:1]; NPrPhe(4-Me) = CCCN[C@@H](Cc1ccc(C)cc1)C(=O)O; NEtPhe(4-Me) = CCN[C@@H](Cc1ccc(C)cc1)C(=O)O; NMeGly(cPent) = CN[C@H](C(=O)O)C1CCCC1; Hyp = O=C(O)[C@@H]1C[C@@H](O)CN1; NMeD = CN[C@@H](CC(=O)O)C(=O)O; NMeL = CN[C@@H](CC(C)C)C(=O)O; Pip = O=C(O)[C@@H]1CCCCN1; Morpholide = C1CN(*)CCO1; NMeA = CN[C@@H](C)C(=O)O; Ac5c = NC1(C(=O)O)CCCC1; Aze = O=C(O)[C@@H]1CCN1; NEtG = CCNCC(=O)O; X45 = C1CCC(*)OC1; Sar = CNCC(=O)O

Assays:
[1] = target: GDP-bound NRAS wild-type protein (Homo sapiens, UniProt P01111); assay: Binding to NRAS by surface plasmon resonance (SPR), Single Cycle Kinetics; details: KD ratio NRAS/KRAS, SPR
Sequence of GDP-bound NRAS wild-type protein (P01111 whole entry): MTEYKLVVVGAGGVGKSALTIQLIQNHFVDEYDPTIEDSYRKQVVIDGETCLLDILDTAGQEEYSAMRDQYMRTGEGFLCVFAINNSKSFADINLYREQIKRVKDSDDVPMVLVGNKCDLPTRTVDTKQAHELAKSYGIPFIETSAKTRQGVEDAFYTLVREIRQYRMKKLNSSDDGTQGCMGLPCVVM

[2] = target: GDP-bound HRAS wild-type protein (Homo sapiens, UniProt P01112); assay: Binding to HRAS by surface plasmon resonance (SPR), Single Cycle Kinetics; details: KD ratio HRAS/KRAS, SPR
Sequence of GDP-bound HRAS wild-type protein (P01112 whole entry): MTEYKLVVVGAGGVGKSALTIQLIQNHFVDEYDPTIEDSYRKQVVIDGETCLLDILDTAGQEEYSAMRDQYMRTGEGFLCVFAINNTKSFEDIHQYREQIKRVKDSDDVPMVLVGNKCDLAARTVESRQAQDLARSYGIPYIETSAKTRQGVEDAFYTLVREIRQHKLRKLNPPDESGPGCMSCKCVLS

| SMILES | NRAS/KRAS (ratio of KD for GDP-bound NRAS wild-type to KD for KRAS) [1] | HRAS/KRAS (ratio of KD for GDP-bound HRAS wild-type to KD for KRAS) [2] |
| --- | --- | --- |
| CCCN1C(=O)CN(C)C(=O)CN(C)C(=O)[C@H]([C@@H](C)CC)NC(=O)[C@H](CC(C)C)N(C)C(=O)C[C@@H](C(=O)N2CCOCC2)N(C)C(=O)[C@H](C2CCCC2)N(C)C(=O)C2(CCCC2)NC(=O)[C@@H]2CCCN2C(=O)[C@H](CCc2ccc(C(F)(F)F)c(Cl)c2)NC(=O)CN(CC)C(=O)[C@@H]1Cc1ccc(C)cc1 [PP0066] ([NMeL]I[Sar][Sar][NPrPhe(4-Me)][NEtG][hPhe(3-Cl-4-CF3)]P[Ac5c][NMeGly(cPent)][NMeD]-Morpholide; lactam N-11) | B (a compound having 3 or more and less than 10 is denoted as B) | C (A compound having a KD ratio of 0.1 or more and less than 3 is denoted as C) |
| CC[C@H](C)[C@@H]1NC(=O)[C@H](CC(C)C)N(C)C(=O)C[C@@H](C(=O)N2CCOCC2)N(C)C(=O)[C@H](C2CCCC2)N(C)C(=O)C2(CCCC2)NC(=O)[C@@H]2C[C@@H](OC3CCCCO3)CN2C(=O)[C@H](CCc2ccc(C(F)(F)F)c(Cl)c2)NC(=O)CN(C)C(=O)[C@H](Cc2ccc(C)cc2)N(CC)C(=O)[C@@H]2CCN2C(=O)[C@H](C)N(C)C1=O (some centres unmarked) [PP0067] ([NMeL]I[NMeA][Aze][NEtPhe(4-Me)][Sar][hPhe(3-Cl-4-CF3)][Hyp](X45)[Ac5c][NMeGly(cPent)][NMeD]-Morpholide; lactam N-11) | C (A compound having a KD ratio of 0.1 or more and less than 3 is denoted as C) | C (A compound having a KD ratio of 0.1 or more and less than 3 is denoted as C) |
| CC[C@H](C)[C@@H]1NC(=O)[C@H](CC(C)C)N(C)C(=O)C[C@@H](C(=O)N2CCOCC2)N(C)C(=O)[C@H](C2CCCC2)N(C)C(=O)C2(CCCC2)NC(=O)[C@@H]2C[C@@H](OC3CCCCO3)CN2C(=O)[C@H](CCc2ccc(C(F)(F)F)c(Cl)c2)NC(=O)CN(C)C(=O)[C@H](Cc2ccc(C)cc2)N(CC)C(=O)CN(C)C(=O)CN(C)C1=O (some centres unmarked) [PP0068] ([NMeL]I[Sar][Sar][NEtPhe(4-Me)][Sar][hPhe(3-Cl-4-CF3)][Hyp](X45)[Ac5c][NMeGly(cPent)][NMeD]-Morpholide; lactam N-11) | C (A compound having a KD ratio of 0.1 or more and less than 3 is denoted as C) | C (A compound having a KD ratio of 0.1 or more and less than 3 is denoted as C) |
| CCCN1C(=O)CN(CC)C(=O)CN(C)C(=O)[C@H]([C@@H](C)CC)NC(=O)[C@H](CC(C)C)N(C)C(=O)C[C@@H](C(=O)N2CCOCC2)N(C)C(=O)[C@H](C2CCCC2)N(C)C(=O)C2(CCCC2)NC(=O)[C@@H]2CCCN2C(=O)[C@H](CCc2ccc(C(F)(F)F)c(Cl)c2)NC(=O)CN(CC)C(=O)[C@@H]1Cc1ccc(C)cc1 [PP0069] ([NMeL]I[Sar][NEtG][NPrPhe(4-Me)][NEtG][hPhe(3-Cl-4-CF3)]P[Ac5c][NMeGly(cPent)][NMeD]-Morpholide; lactam N-11) | C (A compound having a KD ratio of 0.1 or more and less than 3 is denoted as C) | C (A compound having a KD ratio of 0.1 or more and less than 3 is denoted as C) |
| CCCN1C(=O)[C@@H]2CCN2C(=O)[C@@H]2CCCCN2C(=O)[C@H]([C@@H](C)CC)NC(=O)[C@H](CC(C)C)N(C)C(=O)C[C@@H](C(=O)N2CCOCC2)N(C)C(=O)[C@H](C2CCCC2)N(C)C(=O)C2(CCCC2)NC(=O)[C@@H]2CCCN2C(=O)[C@H](CCc2ccc(C(F)(F)F)c(Cl)c2)NC(=O)CN(C)C(=O)[C@@H]1Cc1ccc(C)cc1 [PP0070] ([NMeL]I[Pip][Aze][NPrPhe(4-Me)][Sar][hPhe(3-Cl-4-CF3)]P[Ac5c][NMeGly(cPent)][NMeD]-Morpholide; lactam N-11) | C (A compound having a KD ratio of 0.1 or more and less than 3 is denoted as C) | B (a compound having 3 or more and less than 10 is denoted as B) |
| CC[C@H](C)[C@@H]1NC(=O)[C@H](CC(C)C)N(C)C(=O)C[C@@H](C(=O)N2CCOCC2)N(C)C(=O)[C@H](C2CCCC2)N(C)C(=O)C2(CCCC2)NC(=O)[C@@H]2CCCN2C(=O)[C@H](CCc2ccc(C(F)(F)F)c(Cl)c2)NC(=O)CN(C)C(=O)[C@H](Cc2ccc(C(F)(F)F)cc2)N(C)C(=O)CN(C)C(=O)CN(C)C1=O [PP0076] ([NMeL]I[Sar][Sar][NMePhe(4-CF3)][Sar][hPhe(3-Cl-4-CF3)]P[Ac5c][NMeGly(cPent)][NMeD]-Morpholide; lactam N-11) | C (A compound having a KD ratio of 0.1 or more and less than 3 is denoted as C) | C (A compound having a KD ratio of 0.1 or more and less than 3 is denoted as C) |
| CCCN1C(=O)[C@@H]2CCN2C(=O)[C@@H]2CCCCN2C(=O)[C@H]([C@@H](C)CC)NC(=O)[C@H](CC(C)C)N(C)C(=O)C[C@@H](C(=O)N2CCOCC2)N(C)C(=O)[C@H](C2CCCC2)N(C)C(=O)C2(CCCC2)NC(=O)[C@@H]2CCCN2C(=O)[C@H](CCc2ccc(C(F)(F)F)c(Cl)c2)NC(=O)CN(C)C(=O)[C@@H]1Cc1ccc(C(F)(F)F)cc1 [PP0077] ([NMeL]I[Pip][Aze][NPrPhe(4-CF3)][Sar][hPhe(3-Cl-4-CF3)]P[Ac5c][NMeGly(cPent)][NMeD]-Morpholide; lactam N-11) | C (A compound having a KD ratio of 0.1 or more and less than 3 is denoted as C) | B (a compound having 3 or more and less than 10 is denoted as B) |
| CCCN1C(=O)[C@@H]2CCN2C(=O)[C@H](C)NC(=O)[C@H]([C@@H](C)CC)NC(=O)[C@H](CC(C)C)N(C)C(=O)C[C@@H](C(=O)N2CCOCC2)N(C)C(=O)[C@H](C2CCCC2)N(C)C(=O)C2(CCCC2)NC(=O)[C@@H]2CCCN2C(=O)[C@H](CCc2ccc(C(F)(F)F)c(Cl)c2)NC(=O)CN(C)C(=O)[C@@H]1Cc1ccc(C(F)(F)F)cc1 [PP0078] ([NMeL]IA[Aze][NPrPhe(4-CF3)][Sar][hPhe(3-Cl-4-CF3)]P[Ac5c][NMeGly(cPent)][NMeD]-Morpholide; lactam N-11) | C (A compound having a KD ratio of 0.1 or more and less than 3 is denoted as C) | B (a compound having 3 or more and less than 10 is denoted as B) |
| CC[C@H](C)[C@@H]1NC(=O)[C@H](CC(C)C)N(C)C(=O)C[C@@H](C(=O)N2CCOCC2)N(C)C(=O)[C@H](C2CCCC2)N(C)C(=O)C2(CCCC2)NC(=O)[C@@H]2CCCN2C(=O)[C@H](CCc2ccc(C(F)(F)F)c(Cl)c2)NC(=O)CN(C)C(=O)[C@H](Cc2ccc(C)cc2)N(CC2CCCC2)C(=O)[C@@H]2CCN2C(=O)[C@H](C)N(C)C1=O [PP0084] ([NMeL]I[NMeA][Aze][X29][Sar][hPhe(3-Cl-4-CF3)]P[Ac5c][NMeGly(cPent)][NMeD]-Morpholide; lactam N-11) | C (A compound having a KD ratio of 0.1 or more and less than 3 is denoted as C) | B (a compound having 3 or more and less than 10 is denoted as B) |
| CC[C@H](C)[C@@H]1NC(=O)[C@H](CC(C)C)N(C)C(=O)C[C@@H](C(=O)N2CCOCC2)N(C)C(=O)[C@H](C2CCCC2)N(C)C(=O)C2(CCCC2)NC(=O)[C@@H]2CCCN2C(=O)[C@H](CCc2ccc(C(F)(F)F)c(Cl)c2)NC(=O)CN(C)C(=O)[C@H](Cc2ccc(C)cc2)N(CC2CCCCC2)C(=O)[C@@H]2CCN2C(=O)[C@H](C)N(C)C1=O [PP0085] ([NMeL]I[NMeA][Aze][X27][Sar][hPhe(3-Cl-4-CF3)]P[Ac5c][NMeGly(cPent)][NMeD]-Morpholide; lactam N-11) | C (A compound having a KD ratio of 0.1 or more and less than 3 is denoted as C) | C (A compound having a KD ratio of 0.1 or more and less than 3 is denoted as C) |
| CC[C@H](C)[C@@H]1NC(=O)[C@H](CC(C)C)N(C)C(=O)C[C@@H](C(=O)N2CCOCC2)N(C)C(=O)[C@H](C2CCCC2)N(C)C(=O)C2(CCCC2)NC(=O)[C@@H]2CCCN2C(=O)[C@H](CCc2ccc(C(F)(F)F)c(Cl)c2)NC(=O)CN(C)C(=O)[C@H](Cc2ccc(C)cc2)N(CCC(C)C)C(=O)[C@@H]2CCN2C(=O)[C@H](C)N(C)C1=O [PP0086] ([NMeL]I[NMeA][Aze][X34][Sar][hPhe(3-Cl-4-CF3)]P[Ac5c][NMeGly(cPent)][NMeD]-Morpholide; lactam N-11) | C (A compound having a KD ratio of 0.1 or more and less than 3 is denoted as C) | B (a compound having 3 or more and less than 10 is denoted as B) |
| CC[C@H](C)[C@@H]1NC(=O)[C@H](CC(C)C)N(C)C(=O)C[C@@H](C(=O)N2CCOCC2)N(C)C(=O)[C@H](C2CCCC2)N(C)C(=O)C2(CCCC2)NC(=O)[C@@H]2CCCN2C(=O)[C@H](CCc2ccc(C(F)(F)F)c(Cl)c2)NC(=O)CN(C)C(=O)[C@H](Cc2ccc(C)cc2)N(CCC(C)(C)C)C(=O)[C@@H]2CCN2C(=O)[C@H](C)N(C)C1=O [PP0087] ([NMeL]I[NMeA][Aze][X35][Sar][hPhe(3-Cl-4-CF3)]P[Ac5c][NMeGly(cPent)][NMeD]-Morpholide; lactam N-11) | C (A compound having a KD ratio of 0.1 or more and less than 3 is denoted as C) | C (A compound having a KD ratio of 0.1 or more and less than 3 is denoted as C) |
| C=CCCN1C(=O)[C@@H]2CCN2C(=O)[C@H](C)N(C)C(=O)[C@H]([C@@H](C)CC)NC(=O)[C@H](CC(C)C)N(C)C(=O)C[C@@H](C(=O)N2CCOCC2)N(C)C(=O)[C@H](C2CCCC2)N(C)C(=O)C2(CCCC2)NC(=O)[C@@H]2CCCN2C(=O)[C@H](CCc2ccc(C(F)(F)F)c(Cl)c2)NC(=O)CN(C)C(=O)[C@@H]1Cc1ccc(C)cc1 [PP0089] ([NMeL]I[NMeA][Aze][X48][Sar][hPhe(3-Cl-4-CF3)]P[Ac5c][NMeGly(cPent)][NMeD]-Morpholide; lactam N-11) | C (A compound having a KD ratio of 0.1 or more and less than 3 is denoted as C) | B (a compound having 3 or more and less than 10 is denoted as B) |
